Source: patent publication US9212196B2, “Hypophosphorous acid derivatives having antihyperalgic activity and biological applications thereof” (UNIVERSITE PARIS DESCARTES, priority 2011, dated 2015)

Key:
[1] = system: mGlu7; assay: Agonist activity on mGlu7 in transfected HEK293 cells, intracellular calcium release (Fluo4-AM); type: cell-based; details: ratio of mGlu7 EC50 to mGlu4 EC50
From the text: (§1) The EC50's are compared to those of L-AP4 (L-2-amino-4-phosphonobutyric acid) used as a reference.
(§2) Metabotropic glutamate receptors were transiently transfected in HEK293 cells by electroporation as described elsewhere (Brabet I. et al., 1998) and plated in 96-well microplates. The high affinity glutamate transporter EAAC1 was co-transfected with the receptor in order to avoid any influence of glutamate released by the cells in the assay medium. In the experiments carried out by the inventors, Group-III mGluRs were co-transfected with a chimeric G-protein which couples the activation of the receptor to the phospholipase-C (PLC) pathway. Thus receptor activation induces production of inositol phosphate (IP) which in turn induces intracellular Ca^2+ release. Receptor activity was then determined by measurement of the IP production or Ca release as already described (Goudet C. et al., PNAS 2004). For intracellular calcium measurements, cells expressing mGluRs were loaded with Ca2+-sensitive fluorescent dye Fluo-4 AM (Invitrogen, Cergy-Pontoise, France) dissolved in Hanks' balanced salt solution (HBSS, Invitrogen, Cergy-Pontoise, France) containing 2.5 mM Probenicid (Sigma-Aldrich Chemie, Saint-Quentin Fallavier, France) for 1 h at 37° C., then washed and incubated with HBSS containing probenecid. A drug plate was prepared with the various concentrations of agonist to be tested and drug solution was added in each well after 20 s of recording. Fluorescence signals (excitation 485 nm, emission 525 nm) were measured by using the fluorescence microplate reader Flexstation III (Molecular Devices, Saint-Grégoire, France) at sampling intervals of 1.5 s for 60 s. All points are realized in triplicate.
(§3) The dose-response curves were fitted using the GraphPad Prism program and the following equation: y=[(ymax−ymin)/(1+(x/EC50)n)]+ymin where EC50 is the concentration of the compound necessary to obtain the half maximal effect and n is the Hill coefficient.

[2] = target: mGlu7 (Homo sapiens (Human), UniProt Q14831); assay: as above; type: cell-based; details: transfected cells, calcium release; read-out: mGlu7 EC50 μM (n)
Sequence of mGlu7 (Homo sapiens (Human), UniProt Q14831) (Q14831 35-915): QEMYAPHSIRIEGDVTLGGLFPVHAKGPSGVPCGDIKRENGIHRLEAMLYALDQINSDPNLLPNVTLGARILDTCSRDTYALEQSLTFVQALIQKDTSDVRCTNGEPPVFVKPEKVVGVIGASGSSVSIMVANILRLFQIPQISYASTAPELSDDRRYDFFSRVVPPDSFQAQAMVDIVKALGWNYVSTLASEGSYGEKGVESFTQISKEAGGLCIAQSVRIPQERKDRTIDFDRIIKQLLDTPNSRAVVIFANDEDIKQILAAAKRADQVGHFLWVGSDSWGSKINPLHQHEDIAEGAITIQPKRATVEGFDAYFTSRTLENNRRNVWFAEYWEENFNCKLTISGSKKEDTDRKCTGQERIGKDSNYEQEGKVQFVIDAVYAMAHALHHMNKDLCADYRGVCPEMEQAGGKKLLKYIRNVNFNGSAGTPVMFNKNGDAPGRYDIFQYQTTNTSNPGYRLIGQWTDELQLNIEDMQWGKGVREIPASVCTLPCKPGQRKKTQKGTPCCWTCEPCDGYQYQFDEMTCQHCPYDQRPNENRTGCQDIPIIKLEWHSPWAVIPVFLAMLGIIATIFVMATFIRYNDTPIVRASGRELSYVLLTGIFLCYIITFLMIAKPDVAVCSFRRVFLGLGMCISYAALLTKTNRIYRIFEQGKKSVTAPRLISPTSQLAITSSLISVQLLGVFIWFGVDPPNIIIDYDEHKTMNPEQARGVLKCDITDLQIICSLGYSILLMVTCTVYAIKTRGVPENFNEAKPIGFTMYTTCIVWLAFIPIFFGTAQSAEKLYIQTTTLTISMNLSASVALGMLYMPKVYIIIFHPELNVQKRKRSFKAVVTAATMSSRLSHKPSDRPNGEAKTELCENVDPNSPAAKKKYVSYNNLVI
From the text: as §1, §2, §3

[3] = system: healthy rats; assay: Paw pressure test in healthy rats; type: in vivo, rat; details: i.t., FIG. 1
Experimental: After the induction period of the neuropathy or inflammation, various amounts of derivative 2 dissolved in serum have been injected in rats, (from 0.5 to 15 μg/rat, i.t. from 1 to 30 mg/kg, i.p.) on time-course of vocalization threshold to paw pressure. The results obtained on healthy animals are given on FIG. 1. They are expressed by the time course curves of means+/−SEM of vocalization threshold in grams (n=6-8 rats per group) (A) or by the area under the curve (B). Morphine (10 μg/rat, i.t.) is used as a positive control.
The animals were submitted to the paw pressure test previously described by Randall and Selitto (1957). Nociceptive thresholds, expressed in grams (g), were measured with a Ugo Basile analgesimeter (Apelex, tip diameter of the probe: 1 mm, weight: 30 g) by applying an increasing pressure to the right hind paw of rats until a squeak (vocalization threshold) was obtained (cut-off was 750 g except carrageenan treated animals for which the cut-off was 500 g). The treatments were done after the measurement of two consecutive stable vocalization threshold values and their effects were assessed 15, 30, 45, 60, 90, and 120 min after.
Intrathecal injections were performed, under isoflurane anesthesia (4% induction, 2% maintenance), as previously described (Mestre et al., 1994). […]

mGlu7/4 EC50 ratio [1]: 100
EC50 [2]: 11.6 ± 1.9 µM
Compound: N[C@@H](CCP(=O)(O)C(O)c1ccc(OCC(=O)O)cc1)C(=O)O (stereo partly drawn) [Derivative 2, [((3S)-3-Amino-3-carboxy)propyl][(4-(carboxymethoxy)phenyl)hydroxymethyl]phosphinic Acid]
perception of mechanical acute pain (vocalization threshold to paw pressure) [3]: does not modify the perception of the mechanical acute pain
